{
  "source": "patent US20220089600A1",
  "about": "“TGFß INHIBITOR AND PRODRUGS” (FUNDACIÓ INSTITUT DE RECERCA BIOMÈDICA (IRB BARCELONA), priority 2018, published 2022)",
  "key": {"panel of 97 proteins": {"test_system": "panel of 97 proteins", "assay": "scanEDGE (KINOMEscan) selectivity panel", "assay_type": "binding", "method": "Using scanEDGE (KINOMEscan, Eurofins) assays, the selectivity of the compound of formula I against a panel of 97 proteins was also measured. The selectivity profile of the compound of formula was good."}, "[1]": {"test_system": "proteins in the SafetyScreen44 panel (versus ALK5)", "assay": "SafetyScreen44 safety panel", "conditions": "SafetyScreen44 panel (Eurofins) of off-target proteins; read-out: selectivity ratios for the proteins in the SafetyScreen44 panel", "method": "(§1) In addition, a safety assessment was performed by using the SafetyScreen44™ service from Eurofins. The targets therein are all strongly associated with in vivo adverse drug reactions as referenced in the publication Reducing safety-related drug attrition: the use of in vitro pharmacological profiling (Bowes J et al., Nature Review Drug Discovery 2012, 11(12): 909-922). The panel represents a rational first step in preliminary safety assessments as they provide early identification of potential off-target interactions for the optimization of safety margins. This Safety Panel includes both enzymatic and binding assays. The percentage of inhibition for the compound of formula I at 10 μM was lower than 50% for all proteins tested."}, "[2]": {"test_system": "proteins in the SafetyScreen44 panel", "assay": "SafetyScreen44 safety panel", "conditions": "at 10 μM, all proteins tested", "method": "as §1"}, "[3]": {"test_system": "MTO129 established liver metastases", "assay": "Overt metastatic disease model, alone or with anti-PD-1", "conditions": "monotherapy", "text": "For this purpose, the protocol of mouse inoculation with MTO129 described for FIG. 13 was used, but here treatment with compounds started at day 16 post-inoculation. At this time point mice had developed large metastases. Treatments finished at day 24. […] In these experiments, the vast majority (>90%) of control mice die of liver metastatic disease.\nMouse tumor organoids (MTO129) were developed as indicated in example 3. C57BL/6J mice were purchased from Janvier at 6 weeks of age and injected at 7-8 weeks. For transplantation of MTO129 into the liver, cells were trypsinized (digesting the matrix and disaggregating organoids into single cells), counted and 300,000 cells were injected in HBSS (Hank's Balanced Salt Solution, Lonza) into the spleen, thus delivering the cells directly into the portal vein that connects the intestine to the liver. […] Treatment with compounds occurred by gavage (tube feeding) and mice were treated twice a day with 150 μl of compound suspension in vehicle. […] Control mice were given gavage vehicle and IgG2a isotype control antibody.\nAt this time point, mice had developed large liver metastases. Treatments finished at day 24. […] In these experiments, the vast majority (>90%) of control mice die of liver metastatic disease."}, "[4]": {"assay": "In vivo toxicity, histopathology", "set-up": "species or system mouse", "conditions": "for Sternum side effect, mice affected per mice tested / Long bones side effect, mice affected per mice tested: two weeks", "description": "Number of cured mice, i.e. mice with no metastases at experimental end points, were score. Intestines, skin samples, hearts, thoracic skeletons and limbs of these mice were fixed in 10% formalin, phosphate buffered (Sigma). Soft tissues were embedded in paraffin blocks, sectioned and stained with haematoxylin & eosin. Bones were first decalcified for 2 weeks before embedding, sectioning and staining. An experienced pathologist analyzed tissues for histopathological abnormalities. […] Furthermore, the cartilage ossification zone at the ends of the long bones was analysed for defects in the hypertrophic zone."}},
  "data": [
    {"molecule": "Cc1cccc(-c2nn3c(c2-c2ccnc4ccc(O)cc24)CCC3)n1", "note": "[compound of formula I, 4-(2-(6-methylpyridin-2-yl)-5,6-dihydro-4H-pyrrolo[1,2-b]pyrazol-3-yl)quinolin-6-ol]", "values": [
      {"measurement": "selectivity profile", "setting": "panel of 97 proteins", "result": "good"},
      {"measurement": "selectivity ratio at 10 μM", "setting": "[1]", "result": "> 500"},
      {"measurement": "percentage of inhibition", "setting": "[2]", "result": "lower than 50%"},
      {"measurement": "efficacy at reducing the number of liver metastasis compared to galunisertib", "setting": "[3]; FIG. 14, 1× equimolar doses", "result": "improved efficacy"},
      {"measurement": "survival rates compared to galunisertib", "setting": "[3]; FIG. 15, 1× equimolar doses", "result": "higher survival rates"},
      {"measurement": "Combined side effects per number tested", "setting": "[4]; 0.3x dose", "result": "0/5"},
      {"measurement": "Toxicity (%)", "setting": "[4]; 0.3x dose", "result": 0, "unit": "%"},
      {"measurement": "Sternum side effect, mice affected per mice tested", "setting": "[4]; 0.3x dose", "result": "0/5"},
      {"measurement": "Combined side effects per number tested", "setting": "[4]; 1x dose", "result": "0/5"},
      {"measurement": "Toxicity (%)", "setting": "[4]; 1x dose", "result": 0, "unit": "%"},
      {"measurement": "Sternum side effect, mice affected per mice tested", "setting": "[4]; 1x dose", "result": "0/5"},
      {"measurement": "pathological analysis of the skin and intestine", "setting": "[4]; 1× doses", "result": "No pathological anomalies"},
      {"measurement": "Combined side effects per number tested", "setting": "[4]; 3x dose", "result": "2/10"},
      {"measurement": "Toxicity (%)", "setting": "[4]; 3x dose", "result": 20, "unit": "%"},
      {"measurement": "Long bones side effect, mice affected per mice tested", "setting": "[4]; 3x dose", "result": "1/5"},
      {"measurement": "Sternum side effect, mice affected per mice tested", "setting": "[4]; 3x dose", "result": "1/5"},
      {"measurement": "Combined side effects per number tested", "setting": "[4]; 9x dose", "result": "4/8"},
      {"measurement": "Toxicity (%)", "setting": "[4]; 9x dose", "result": 50, "unit": "%"},
      {"measurement": "Long bones side effect, mice affected per mice tested", "setting": "[4]; 9x dose", "result": "3/4"},
      {"measurement": "Sternum side effect, mice affected per mice tested", "setting": "[4]; 9x dose", "result": "1/4"},
      {"measurement": "toxic dose (toxicity >50%)", "setting": "[4]; 9× dose equivalent", "result": 1272, "unit": "mg/kg/day"},
      {"measurement": "therapeutic index (toxic dose/effective dose)", "setting": "[4]; dose equivalents", "result": 30}
    ]}
  ]
}
